These results are taken from patent publication US8933114B2, “Polymorphic forms of asenapine maleate and processes for their preparation” (Chemo Iberica, S.A., priority 2010, dated 2015).

Molecules are shown by their SMILES. Counter-ions that a name gives are not always drawn.

The nature of data set [1]: stability of the polymorphic forms at room temperature. As to conditions: solid form. In kind it is physicochemical.
The nature of data set [2]: solid-state stability of the freeze-dried amorphous form upon standing. It counts as physicochemical. Particulars: amorphous form prepared by freeze-drying. From the text:
WO 2008/040816 discloses an amorphous form of asenapine maleate, prepared via spray-drying or freeze-drying processes.

The conditions of data set [3]: micronization step starting from the monoclinic form; cited from earlier work.

For the compound `CN1C[C@H]2c3ccccc3Oc3ccc(Cl)cc3[C@@H]2C1` [Form G, asenapine maleate], in data set [1], the “stability at room temperature” value is given as “stable at room temperature”.
For the compound `CN1C[C@H]2c3ccccc3Oc3ccc(Cl)cc3[C@@H]2C1` [amorphous form, asenapine maleate], in data set [2], the “stability of solid form upon standing” value is “not stable, and spontaneously converts into Form H upon standing”.
Consider `CN1C[C@H]2c3ccccc3Oc3ccc(Cl)cc3[C@@H]2C1` [Form H, asenapine maleate], for which, in data set [3], the “polymorphic form obtained after micronization” value was “an unpredictable mixture of Form H and Form L is obtained”.
